Test [1] addresses T1, M. smegmatis DprE1 (Mycolicibacterium smegmatis, UniProt A0R607). Put plainly: biochemical. Set-up: species or system Mycobacterium smegmatis.
The test system of test [2] is M. tuberculosis H37Rv. Put plainly: microbe, parasite or virus in culture. Format: cell-based. The conditions noted are these: Mycobacterium tuberculosis.
Test [3] concerns M. smegmatis mc^2155-pJV53H DprE1 L282V.
Test [4] concerns M. abscessus. Conditions: cited from earlier work.
For test [5], the target named is T2, M. smegmatis DprE1 C394A (Mycolicibacterium smegmatis, UniProt A0R607, C386A). Put plainly: biochemical.
Test [6] concerns the target T2, M. smegmatis DprE1 C394A.
The target of test [7] is M. smegmatis DprE1 L282F (Mycolicibacterium smegmatis, UniProt A0R607, L274F/L282F). Put plainly: biochemical.
For test [8], the target named is T3, M. smegmatis DprE1 C394S (Mycolicibacterium smegmatis, UniProt A0R607, C386S).
Test [9] has as its system M. tuberculosis. Conditions: cited from earlier work.
The test system of test [10] is M. smegmatis mc^2155.
The subject of test [11] is M. tuberculosis H37Rv.
Test [12] relates to M. smegmatis. Conditions: cited from earlier work.
Test [13] concerns M. tuberculosis H37Rv. The source holds these as a separate data set.
Test [14] addresses M. smegmatis DprE1 L282V (Mycolicibacterium smegmatis, UniProt A0R607, L274V/L282V). Put plainly: biochemical.
The test system of test [15] is M. smegmatis mc^2155. Put plainly: microbe, parasite or virus in culture. Format: cell-based, Mycobacterium smegmatis. Conditions: Mycolicibacterium smegmatis.
The target of test [16] is T3, M. smegmatis DprE1 C394S. Put plainly: biochemical.
In test [17] the test system is M. kansasii. Conditions: cited from earlier work.
In test [18] the test system is M. avium. Conditions: cited from earlier work.
The test system of test [19] is M. smegmatis mc^2155-pJV53H DprE1 L282F.
The subject of test [20] is M. tuberculosis NTB1.
Test [21] concerns M. bovis. Conditions: cited from earlier work.
Test [22] concerns the target T1, M. smegmatis DprE1. The conditions noted are these: cited from earlier work.

The values below come from PMC8776228 (International Journal of Molecular Sciences, 2022).

Values after ≈ are worked out from the molar mass of the structure shown. Values joined by “and” are separate entries in the source; they are usually repeats but may differ in a detail not shown here. Identical values can stand only once. Like-named read-outs stand apart in the source and are kept apart here.

What is called IC50 is the concentration that gives 50% inhibition. With Milbemycin oxime, in test [1] (read-out: IC50), the IC50 was 25.5 ± 5.6 µM.

In turn, `CO/N=C1\C[C@]2(C[C@@H]3C[C@@H](C/C=C(\C)C[C@@H](C)/C=C/C=C4\CO[C@@H]5[C@H](O)C(C)=C[C@@H](C(=O)O3)[C@]45O)O2)O[C@H](/C(C)=C/C(C)C)[C@H]1C` [Moxidectin] returned an IC50 in [1] of 6.1 ± 0.9 µM.

For the compound `NNC(=O)c1ccncc1` [INH, isoniazid], the MIC in [2] (read-out: MIC INH) stood at 0.025 µg/mL (≈ 0.182 µM).

On to `CO[C@H]1C[C@H](O[C@@H]2/C(C)=C/C[C@@H]3C[C@@H](C[C@]4(CC[C@H](C)[C@@H](C5CCCCC5)O4)O3)OC(=O)[C@@H]3C=C(C)/C(=N/O)[C@H]4OC/C(=C\C=C\[C@@H]2C)[C@]43O)O[C@@H](C)[C@@H]1O` [Selamectin], for which the “change in susceptibility compared to wild-type M. smegmatis (MIC)” value in test [3] and in [19] was “no changes in their susceptibilities” each time. Further, the MIC in test [4] was over 32 µg/mL; in test [9], 2 to 4 µg/mL; in test [12], 2 to 4 µg/mL; in test [15] (MC^2155, read-out: MIC SEL), 4 µg/mL (≈ 5.19 µM); in [17], 0.5 µg/mL (≈ 0.649 µM); in [2] (read-out: MIC SEL) it was 4 µg/mL (≈ 5.19 µM). The MIC was 16 µg/mL (≈ 20.8 µM) in test [18] and 2 to 4 µg/mL in test [21]. Moreover, the concentration for half-maximal inhibition (IC50) is 3.9 ± 1 µM in test [5]; 1 ± 0.7 µM in test [7]; ~2.6 µM and 2.6 µM in test [1] (IC50); 50.6 ± 9.2 µM in test [14]; 12.1 ± 1.2 µM in test [16]. Further, the entries for the “IC50 compared to the wild type enzyme” value in [6] and in [8] were “in the same range” and “slightly higher”, respectively. For the same compound, the “^14C uptake” value in [10] and in [11] was “general decrease” each time. For the same compound, the “changes in lipid composition associated with inhibition of arabinan synthesis” value in [10] and in [11] was “did not result in significant changes” each time. Moreover, the “day at which the limit of detection (1-log CFU/mL) was reached” value in test [13] worked out at 22 day; in test [20], 11 day. The “time–kill activity against NTB1 compared to H37Rv” value in test [20] was “more active”.

As for `C[C@H]1COC2(CCN(c3nc(=O)c4cc(C(F)(F)F)cc([N+](=O)[O-])c4s3)CC2)O1` [BTZ043], in [22], the 50% inhibitory concentration (IC50) was 0.004 µM. Also, the MIC was 0.008 µg/mL (≈ 0.0185 µM) in test [15] (MC^2155, read-out: MIC BTZ-043) and 0.001 µg/mL (≈ 0.00232 µM) in [2] (read-out: MIC BTZ043).

With Ivermectin, the IC50 in [1] (read-out: IC50) was found to be 13.2 ± 3.3 µM.
